# Source: patent publication US8952024B2, “Herbicidal pyrimidone derivatives” (E I du Pont de Nemours and Company, priority 2009, dated 2015)
# Assays:
# Assay in all cases: Test B pre-/postemergence plant response
# Format in all cases: in vivo
# Settings in all cases: Postemergence
# [1] = system: giant foxtail (Setaria faberii)
# Procedure, shortened: (§1)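 Test compounds, formulated in a non-phytotoxic solvent mixture with surfactant, are applied to the soil surface (loam and sand blend) right after seeding, or sprayed over plants at the 1- to 4-leaf stage grown in peat moss/vermiculite medium. After 13 to 15 days under glasshouse conditions, each species is scored visually from 0 (no effect) to 100 (complete control) against controls.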
# [2] = system: johnsongrass (Sorghum halepense)
# Procedure, shortened: as §1
# [3] = system: ragweed (common ragweed, Ambrosia elatior)
# Procedure, shortened: as §1
# [4] = system: corn (Zea mays)
# Procedure, shortened: as §1
# [5] = system: blackgrass (Alopecurus myosuroides)
# Procedure, shortened: as §1
# [6] = system: kochia (Kochia scoparia)
# Procedure, shortened: as §1
# [7] = system: velvetleaf (Abutilon theophrasti)
# Procedure, shortened: as §1
# [8] = system: woolly cupgrass (Eriochloa villosa)
# Procedure, shortened: as §1
# [9] = system: Surinam grass (Brachiaria decumbens)
# Procedure, shortened: as §1
# [10] = system: soybean (Glycine max)
# Procedure, shortened: as §1
# [11] = system: Italian ryegrass (Lolium multiflorum)
# Procedure, shortened: as §1
# [12] = system: downy bromegrass (Bromus tectorum)
# Procedure, shortened: as §1
# [13] = system: pigweed (Amaranthus retroflexus)
# Procedure, shortened: as §1
# [14] = 31 g ai/ha, 0 to 100 scale (0 no effect, 100 complete control)
# [15] = 62 g ai/ha, scale 0 to 100 (0 no effect, 100 complete control)
# [16] = 125 g ai/ha, scale 0 to 100 (0 no effect, 100 complete control)
# [17] = 250 g ai/ha, scale 0 to 100 (0 no effect, 100 complete control), 13 to 15 days
structure (smiles),measurement,setting,value
COCCn1c(-c2ccsc2)ncc(C(=O)C2=C(O)C3CCC(C3)C2=O)c1=O (stereo not shown) [Compound 228],"Plant response rating, Foxtail, Giant",[1]; [14],85
same,"Plant response rating, Foxtail, Giant",[1]; [15],85
same,"Plant response rating, Foxtail, Giant",[1]; [16],95
same,"Plant response rating, Foxtail, Giant",[1]; [17],95
same,"Plant response rating, Johnsongrass",[2]; [14],75
same,"Plant response rating, Johnsongrass",[2]; [15],75
same,"Plant response rating, Johnsongrass",[2]; [16],95
same,"Plant response rating, Johnsongrass",[2]; [17],100
same,"Plant response rating, Ragweed",[3]; [14],70
same,"Plant response rating, Ragweed",[3]; [15],80
same,"Plant response rating, Ragweed",[3]; [17],98
same,"Plant response rating, Corn",[4]; [14],80
same,"Plant response rating, Corn",[4]; [15],85
same,"Plant response rating, Corn",[4]; [16],85
same,"Plant response rating, Corn",[4]; [17],90
same,"Plant response rating, Blackgrass",[5]; [14],5
same,"Plant response rating, Blackgrass",[5]; [15],35
same,"Plant response rating, Blackgrass",[5]; [16],50
same,"Plant response rating, Blackgrass",[5]; [17],55
same,"Plant response rating, Kochia",[6]; [14],90
same,"Plant response rating, Kochia",[6]; [15],100
same,"Plant response rating, Kochia",[6]; [16],100
same,"Plant response rating, Kochia",[6]; [17],100
same,"Plant response rating, Velvetleaf",[7]; [14],80
same,"Plant response rating, Velvetleaf",[7]; [15],100
same,"Plant response rating, Velvetleaf",[7]; [17],100
same,"Plant response rating, Cupgrass, Woolly",[8]; [14],75
same,"Plant response rating, Cupgrass, Woolly",[8]; [15],95
same,"Plant response rating, Cupgrass, Woolly",[8]; [16],95
same,"Plant response rating, Cupgrass, Woolly",[8]; [17],98
same,"Plant response rating, Surinam Grass",[9]; [14],75
same,"Plant response rating, Surinam Grass",[9]; [15],85
same,"Plant response rating, Surinam Grass",[9]; [17],98
same,"Plant response rating, Soybean",[10]; [14],95
same,"Plant response rating, Soybean",[10]; [15],98
same,"Plant response rating, Soybean",[10]; [17],100
same,"Plant response rating, Ryegrass, Italian",[11]; [14],0
same,"Plant response rating, Ryegrass, Italian",[11]; [15],0
same,"Plant response rating, Ryegrass, Italian",[11]; [17],0
same,"Plant response rating, Bromegrass, Downy",[12]; [14],5
same,"Plant response rating, Bromegrass, Downy",[12]; [15],5
same,"Plant response rating, Bromegrass, Downy",[12]; [16],10
same,"Plant response rating, Bromegrass, Downy",[12]; [17],10
same,"Plant response rating, Pigweed",[13]; [14],98
same,"Plant response rating, Pigweed",[13]; [15],100
same,"Plant response rating, Pigweed",[13]; [17],100
